Active and inactive are the calls of the source. No cut-off for these calls is given here.
What was measured:
KMM-1 [1] = test: Down regulation of cyclin D3 expression in human KMM-1 cells at 5 to 50 uM after 48 hrs by immunoblotting analysis; type: functional, cell-based; settings: dose 5-50 µM
KMM-1 [2] = test: Growth inhibition of human KMM-1 cells at 1 to 10 uM after 48 hrs by PrestoBlue cell viability assay; type: functional, cell-based; settings: dose 1-10 µM
KMM-1 [3] = test: Growth inhibition of human KMM-1 cells at 10 uM after 48 hrs by PrestoBlue cell viability assay relative to control; type: functional
[4] = Induction of apoptosis in human KMM-1 cells assessed as increase in cleaved caspace-3 expression at 50 uM after 48 hrs by immunoblotting analysis; type: functional

SMILES: O=C(/C=C/c1ccc(O)c(O)c1)NCCc1ccccc1
- Activity (KMM-1 [1]): inactive
- growth inhibition (GI) (KMM-1 [2]): Active

SMILES: COc1cc(/C=C/C(=O)OCCc2ccccc2)cc(OC)c1O
- growth inhibition (GI) (KMM-1 [3]): inactive

SMILES: O=C(/C=C/c1ccc(O)c(O)c1)OCCC1CCCCC1
- growth inhibition (GI) (KMM-1 [2]): Active
- fold change (FC) [4]: 3.2

SMILES: O=C(/C=C/c1cccc(O)c1O)OCCCc1ccccc1
- growth inhibition (GI) (KMM-1 [3]): inactive

SMILES: COc1cc(/C=C/C(=O)OCCCc2ccccc2)cc(OC)c1O
- growth inhibition (GI) (KMM-1 [3]): inactive

SMILES: O=C(O)/C=C/c1ccc(O)c(O)c1
- Activity (KMM-1 [1]): inactive
- growth inhibition (GI) (KMM-1 [2]): inactive

SMILES: COc1cc(/C=C/C(=O)OCCCc2ccccc2)ccc1O
- growth inhibition (GI) (KMM-1 [3]): inactive

Reference: ChEMBL document CHEMBL4715865, “Antimyeloma Potential of Caffeic Acid Phenethyl Ester and Its Analogues through Sp1 Mediated Downregulation of IKZF1-IRF4-MYC Axis” (J Nat Prod, 2020)
